Laboratory results from ChEMBL document CHEMBL4507292 (2021).

Tests used:
[1] = target: Sodium-dependent noradrenaline transporter (Homo sapiens, UniProt P23975)
[2] = target: Protein kinase C iota type (Homo sapiens) (UniProt P41743); conditions: Compound concentration 1000.0 nM
[3] = target: Somatostatin receptor type 1 (Homo sapiens) (UniProt P30872); assay: Somatostatin sst1 Eurofins-Panlabs radioligand binding assay; parameters: ligand concentration 0.1 nM; conditions: Compound concentration 10.0 uM
[4] = (§1) Protein Serine/Threonine Kinase, PKA, Non-Selective Eurofins-Panlabs enzyme assay; assay type: protein-complex assay, Bos taurus; parameters: substrate with concentration 370 µg/mL Histone Type III-S, incubation time 15 min, incubation temperature 25 °C
Bos taurus = species on record: Bos taurus; assay: as §1; assay type: protein-complex assay; parameters: substrate with concentration 370 µg/mL Histone Type III-S, incubation time 15 min, incubation temperature 25 °C
[5] = target: Glutamate NMDA receptor (Rattus norvegicus) (UniProt P35439+Q00959+Q00960+Q00961+Q62645+Q8VHN2+Q9R1M7); conditions: Compound concentration 10.0 uM
[6] = target: 5-hydroxytryptamine receptor 4 (Homo sapiens) (UniProt Q13639); assay: Inhibition of Serotonin (5-Hydroxytryptamine) 5-HT4 at 10 µM in the Eurofins-Panlabs radioligand binding assay (Eurofins_assay_272000); conditions: Cavia porcellus; Compound concentration 10.0 uM
[7] = target: Prostaglandin E2 receptor EP4 subtype (Homo sapiens) (UniProt P35408); assay: Prostanoid EP4 Eurofins-Panlabs radioligand binding assay; parameters: ligand concentration 0.5 nM; conditions: Compound concentration 10.0 uM
[8] = target: Interstitial collagenase (Homo sapiens) (UniProt P03956); assay: Inhibition of Peptidase, Matrix Metalloproteinase-1 (MMP-1) at 10 µM in the Eurofins-Panlabs enzyme assay (Eurofins_assay_114110); conditions: Compound concentration 10.0 uM
[9] = target: D(3) dopamine receptor (Homo sapiens) (UniProt P35462)
[10] = target: voltage-gated sodium channel, site 2 (Rattus norvegicus, UniProt F1LQQ7+O08562+O88420+O88457+P04774+P04775+P08104+P15389+P15390+Q62968); assay: Inhibition of Sodium Channel, Site 2 at 10 µM in the Eurofins-Panlabs radioligand binding assay (Eurofins_assay_279510); assay type: protein assay; parameters: ligand concentration 5 nM, non-specific ligand with concentration 100 µM Veratridine, incubation time 60 min, incubation temperature 37 °C; conditions: male, Wistar, rat whole brain (except cerebellum) membranes, probe [3H] Batrachotoxinin, 5 nM, compound concentration 10 uM
[11] = target: Peroxisome proliferator-activated receptor alpha (Homo sapiens) (UniProt Q07869); assay: PPARalpha Eurofins-Panlabs radioligand binding assay; conditions: Compound concentration 10.0 uM
[12] = target: Beta-3 adrenergic receptor (Homo sapiens, UniProt P13945)
[13] = target: Melanocortin receptor 5 (Homo sapiens) (UniProt P33032); assay: Inhibition of Melanocortin MC5 at 10 µM in the Eurofins-Panlabs radioligand binding assay (Eurofins_assay_251400); parameters: ligand concentration 0.035 nM; conditions: Compound concentration 10.0 uM
[14] = target: Kappa-type opioid receptor (Homo sapiens, UniProt P41145); assay: Inhibition of Opiate kappa (OP2, KOP) at compound concentration of 10.0 uM in the Eurofins-Panlabs radioligand binding assay (Eurofins_assay_260210); parameters: ligand concentration 0.6 nM, non-specific ligand with concentration 10 uM Naloxone, incubation time 60 min, incubation temperature 25 C
[15] = target: Galanin receptor type 2 (Homo sapiens) (UniProt O43603); assay: Galanin GAL2 Eurofins-Panlabs radioligand binding assay; parameters: ligand concentration 0.02 nM; conditions: Compound concentration 10.0 uM
[16] = target: Somatostatin receptor type 5 (Homo sapiens) (UniProt P35346); assay: Somatostatin sst5 Eurofins-Panlabs radioligand binding assay; conditions: Compound concentration 10.0 uM
[17] = Protein Tyrosine Kinase, pp60 c-SRC Eurofins-Panlabs enzyme assay
[18] = target: Polyunsaturated fatty acid 5-lipoxygenase (Homo sapiens) (UniProt P09917); assay: Lipoxygenase 5-LO Eurofins-Panlabs enzyme assay; conditions: Compound concentration 10.0 uM
Phosphodiesterase PDE1 = Phosphodiesterase PDE1 (Bos taurus, UniProt Q01061+P14100+A0A3Q1MCV4); assay: (§2) Phosphodiesterase PDE1 Eurofins-Panlabs enzyme assay; assay type: protein assay; parameters: substrate with concentration [3H] cAMP + cAMP, incubation time 20 min, incubation temperature 25 °C
[19] = target: Phosphodiesterase PDE1 (Bos taurus) (UniProt Q01061+P14100+A0A3Q1MCV4); assay: as §2; assay type: protein assay; parameters: substrate with concentration [3H] cAMP + cAMP, incubation time 20 min, incubation temperature 25 °C
[20] = target: Bombesin receptor (Rattus norvegicus) (UniProt P52500+P24053+Q8K418); assay: Bombesin, Non-Selective Eurofins-Panlabs radioligand binding assay; assay type: protein assay; conditions: Compound concentration 10.0 uM
[21] = target: Endothelin receptor type B (Homo sapiens) (UniProt P24530); conditions: Compound concentration 10.0 uM
[22] = target: Neuromedin-K receptor (Homo sapiens) (UniProt P29371); assay: Tachykinin NK3 Eurofins-Panlabs radioligand binding assay; parameters: ligand concentration 0.8 nM; conditions: Compound concentration 10.0 uM
[23] = target: T1, 5-hydroxytryptamine receptor 2C (Homo sapiens) (UniProt P28335); conditions: Compound concentration 10.0 uM
T1 sequence (whole entry): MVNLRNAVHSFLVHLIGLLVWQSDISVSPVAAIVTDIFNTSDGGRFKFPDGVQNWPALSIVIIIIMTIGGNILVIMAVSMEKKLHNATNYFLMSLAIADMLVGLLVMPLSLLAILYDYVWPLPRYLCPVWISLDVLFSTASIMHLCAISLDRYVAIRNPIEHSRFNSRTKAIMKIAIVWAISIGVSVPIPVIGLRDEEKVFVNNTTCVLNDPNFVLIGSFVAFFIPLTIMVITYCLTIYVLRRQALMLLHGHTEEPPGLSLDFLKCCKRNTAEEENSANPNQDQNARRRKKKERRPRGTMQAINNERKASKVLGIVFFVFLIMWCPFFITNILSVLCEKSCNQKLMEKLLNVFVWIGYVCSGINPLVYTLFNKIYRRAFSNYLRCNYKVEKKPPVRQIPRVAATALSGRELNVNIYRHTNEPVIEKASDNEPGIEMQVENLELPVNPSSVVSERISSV

[24] = target: Neuropeptide Y receptor type 2 (Homo sapiens) (UniProt P49146); assay: Inhibition of Neuropeptide Y Y2 at 10 µM in the Eurofins-Panlabs radioligand binding assay (Eurofins_assay_257110); conditions: Compound concentration 10.0 uM
Rattus norvegicus = species on record: Rattus norvegicus; conditions: Compound concentration 10.0 uM
[25] = target: Neurotensin receptor type 1 (Homo sapiens, UniProt P30989); assay: Neurotensin NT1 Eurofins-Panlabs radioligand binding assay; parameters: ligand concentration 0.02 nM, non-specific ligand with concentration 1 µM Neurotensin, incubation time 45 min, incubation temperature 25 °C
[26] = target: Neuropeptide Y receptor type 1 (Homo sapiens) (UniProt P25929); assay: Inhibition of Neuropeptide Y Y1 at 10 µM in the Eurofins-Panlabs radioligand binding assay (Eurofins_assay_257010)
[27] = Compound concentration 100.0 uM

Beta-3 adrenergic receptor, sequence (P13945 whole entry, looked up): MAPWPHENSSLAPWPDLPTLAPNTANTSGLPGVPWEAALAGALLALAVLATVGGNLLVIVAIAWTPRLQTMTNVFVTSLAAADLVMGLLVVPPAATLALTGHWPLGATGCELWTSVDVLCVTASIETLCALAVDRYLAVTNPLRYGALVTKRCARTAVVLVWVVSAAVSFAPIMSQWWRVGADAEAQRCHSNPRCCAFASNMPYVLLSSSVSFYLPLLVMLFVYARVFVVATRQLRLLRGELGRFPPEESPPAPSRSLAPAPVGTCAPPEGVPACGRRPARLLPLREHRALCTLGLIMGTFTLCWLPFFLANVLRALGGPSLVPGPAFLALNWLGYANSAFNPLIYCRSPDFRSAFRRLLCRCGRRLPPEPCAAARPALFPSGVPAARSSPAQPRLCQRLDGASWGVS
Sodium-dependent noradrenaline transporter, sequence (P23975 whole entry): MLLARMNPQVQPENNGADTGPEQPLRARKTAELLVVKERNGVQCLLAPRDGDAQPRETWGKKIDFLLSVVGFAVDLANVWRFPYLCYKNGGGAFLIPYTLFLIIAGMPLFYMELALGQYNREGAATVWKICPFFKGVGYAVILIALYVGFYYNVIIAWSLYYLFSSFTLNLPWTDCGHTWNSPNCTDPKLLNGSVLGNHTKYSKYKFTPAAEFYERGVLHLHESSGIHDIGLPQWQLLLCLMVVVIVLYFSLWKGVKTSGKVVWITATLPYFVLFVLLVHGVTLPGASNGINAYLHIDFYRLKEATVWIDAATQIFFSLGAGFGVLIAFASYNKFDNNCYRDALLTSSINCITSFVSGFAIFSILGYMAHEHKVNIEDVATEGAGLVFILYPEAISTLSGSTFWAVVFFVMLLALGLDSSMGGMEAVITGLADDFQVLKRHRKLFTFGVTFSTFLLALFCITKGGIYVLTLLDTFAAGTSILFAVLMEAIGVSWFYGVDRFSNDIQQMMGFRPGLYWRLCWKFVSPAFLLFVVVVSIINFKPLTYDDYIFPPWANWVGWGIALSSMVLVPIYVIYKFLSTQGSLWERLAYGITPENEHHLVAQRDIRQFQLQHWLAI
D(3) dopamine receptor (Homo sapiens), sequence (P35462 whole entry): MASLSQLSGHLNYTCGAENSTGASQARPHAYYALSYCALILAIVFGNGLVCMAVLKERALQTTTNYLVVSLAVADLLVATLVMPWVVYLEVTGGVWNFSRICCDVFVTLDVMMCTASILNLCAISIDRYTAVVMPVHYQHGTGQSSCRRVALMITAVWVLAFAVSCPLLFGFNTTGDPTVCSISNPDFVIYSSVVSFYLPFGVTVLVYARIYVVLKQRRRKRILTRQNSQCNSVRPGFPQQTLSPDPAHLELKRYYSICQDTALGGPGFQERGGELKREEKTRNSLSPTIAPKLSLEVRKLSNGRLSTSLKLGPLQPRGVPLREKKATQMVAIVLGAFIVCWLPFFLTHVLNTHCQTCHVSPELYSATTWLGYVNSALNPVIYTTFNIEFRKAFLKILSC
Neurotensin receptor type 1, sequence (P30989 whole entry): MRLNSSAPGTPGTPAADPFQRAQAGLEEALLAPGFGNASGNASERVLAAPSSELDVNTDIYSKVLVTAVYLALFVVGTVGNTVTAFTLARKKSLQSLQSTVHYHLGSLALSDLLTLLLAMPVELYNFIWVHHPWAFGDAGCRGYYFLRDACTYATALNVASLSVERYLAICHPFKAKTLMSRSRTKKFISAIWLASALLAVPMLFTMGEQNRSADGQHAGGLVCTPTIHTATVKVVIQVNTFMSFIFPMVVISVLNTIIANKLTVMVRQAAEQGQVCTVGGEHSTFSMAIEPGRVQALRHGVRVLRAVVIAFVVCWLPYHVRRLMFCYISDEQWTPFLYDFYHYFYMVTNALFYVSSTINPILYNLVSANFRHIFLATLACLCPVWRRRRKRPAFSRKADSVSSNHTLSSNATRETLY
Kappa-type opioid receptor, sequence (P41145 whole entry): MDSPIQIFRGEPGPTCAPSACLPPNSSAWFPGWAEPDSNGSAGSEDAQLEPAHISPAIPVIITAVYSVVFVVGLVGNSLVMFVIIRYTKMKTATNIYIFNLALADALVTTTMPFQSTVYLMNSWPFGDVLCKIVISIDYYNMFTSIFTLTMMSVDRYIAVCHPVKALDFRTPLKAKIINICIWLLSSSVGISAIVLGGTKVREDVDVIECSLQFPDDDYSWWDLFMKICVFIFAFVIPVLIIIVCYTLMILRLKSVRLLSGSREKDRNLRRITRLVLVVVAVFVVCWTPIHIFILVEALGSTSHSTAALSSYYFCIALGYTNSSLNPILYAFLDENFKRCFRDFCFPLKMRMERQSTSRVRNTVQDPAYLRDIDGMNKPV
Bombesin receptor (Rattus norvegicus), sequence (P24053 whole entry, looked up): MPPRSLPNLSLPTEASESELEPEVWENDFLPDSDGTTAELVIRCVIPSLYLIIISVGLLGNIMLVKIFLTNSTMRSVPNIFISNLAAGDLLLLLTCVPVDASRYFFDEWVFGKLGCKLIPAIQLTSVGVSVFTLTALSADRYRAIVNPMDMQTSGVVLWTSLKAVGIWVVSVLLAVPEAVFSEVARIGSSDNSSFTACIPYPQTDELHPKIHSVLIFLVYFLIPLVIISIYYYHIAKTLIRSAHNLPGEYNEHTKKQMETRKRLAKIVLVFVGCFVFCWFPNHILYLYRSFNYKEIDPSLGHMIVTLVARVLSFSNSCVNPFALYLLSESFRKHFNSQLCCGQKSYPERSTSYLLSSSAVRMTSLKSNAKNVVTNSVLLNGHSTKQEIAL
Bombesin receptor (Rattus norvegicus), sequence (P52500 whole entry, looked up): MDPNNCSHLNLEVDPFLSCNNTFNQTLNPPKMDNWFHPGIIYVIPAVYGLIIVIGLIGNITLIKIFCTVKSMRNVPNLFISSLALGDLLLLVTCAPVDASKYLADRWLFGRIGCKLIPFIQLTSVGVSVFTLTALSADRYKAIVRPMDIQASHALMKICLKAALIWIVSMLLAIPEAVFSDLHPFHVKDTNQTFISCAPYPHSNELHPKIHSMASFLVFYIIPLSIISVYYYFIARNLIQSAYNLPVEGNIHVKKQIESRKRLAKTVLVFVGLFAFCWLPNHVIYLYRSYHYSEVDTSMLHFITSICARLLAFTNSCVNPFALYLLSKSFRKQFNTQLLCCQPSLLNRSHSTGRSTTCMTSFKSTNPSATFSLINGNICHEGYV
Bombesin receptor (Rattus norvegicus), sequence (Q8K418 whole entry, looked up): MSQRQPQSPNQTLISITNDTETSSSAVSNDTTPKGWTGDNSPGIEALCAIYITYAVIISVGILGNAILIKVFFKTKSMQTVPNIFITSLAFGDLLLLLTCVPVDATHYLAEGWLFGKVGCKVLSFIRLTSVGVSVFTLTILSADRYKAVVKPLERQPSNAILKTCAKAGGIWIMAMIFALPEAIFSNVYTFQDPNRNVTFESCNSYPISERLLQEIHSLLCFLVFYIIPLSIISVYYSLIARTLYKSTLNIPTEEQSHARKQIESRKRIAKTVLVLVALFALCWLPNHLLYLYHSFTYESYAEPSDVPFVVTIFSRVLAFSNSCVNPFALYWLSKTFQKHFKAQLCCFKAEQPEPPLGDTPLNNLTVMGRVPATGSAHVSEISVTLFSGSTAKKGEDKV
Somatostatin receptor type 1 (Homo sapiens), sequence (P30872 whole entry): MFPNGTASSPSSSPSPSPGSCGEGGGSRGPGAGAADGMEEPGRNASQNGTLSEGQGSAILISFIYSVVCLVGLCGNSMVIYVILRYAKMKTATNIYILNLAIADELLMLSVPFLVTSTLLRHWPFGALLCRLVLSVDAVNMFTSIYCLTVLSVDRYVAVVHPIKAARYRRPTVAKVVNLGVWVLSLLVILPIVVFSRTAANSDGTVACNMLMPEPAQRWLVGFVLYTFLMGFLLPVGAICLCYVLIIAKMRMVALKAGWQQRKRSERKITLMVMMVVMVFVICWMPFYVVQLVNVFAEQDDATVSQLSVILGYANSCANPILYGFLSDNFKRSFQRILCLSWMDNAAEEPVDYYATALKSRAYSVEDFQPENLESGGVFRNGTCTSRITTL
Neuropeptide Y receptor type 1 (Homo sapiens), sequence (P25929 whole entry): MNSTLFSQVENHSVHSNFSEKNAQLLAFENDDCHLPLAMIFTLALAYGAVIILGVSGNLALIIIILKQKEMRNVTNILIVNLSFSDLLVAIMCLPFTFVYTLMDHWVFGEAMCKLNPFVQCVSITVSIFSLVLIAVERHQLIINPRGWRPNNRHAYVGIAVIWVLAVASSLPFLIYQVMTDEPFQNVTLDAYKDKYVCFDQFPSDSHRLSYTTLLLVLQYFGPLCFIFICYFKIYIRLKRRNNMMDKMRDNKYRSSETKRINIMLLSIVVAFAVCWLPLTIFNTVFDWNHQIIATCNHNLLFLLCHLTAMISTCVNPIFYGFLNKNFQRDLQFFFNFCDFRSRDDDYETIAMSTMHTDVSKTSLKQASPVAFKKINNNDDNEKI
Melanocortin receptor 5 (Homo sapiens), sequence (P33032 whole entry): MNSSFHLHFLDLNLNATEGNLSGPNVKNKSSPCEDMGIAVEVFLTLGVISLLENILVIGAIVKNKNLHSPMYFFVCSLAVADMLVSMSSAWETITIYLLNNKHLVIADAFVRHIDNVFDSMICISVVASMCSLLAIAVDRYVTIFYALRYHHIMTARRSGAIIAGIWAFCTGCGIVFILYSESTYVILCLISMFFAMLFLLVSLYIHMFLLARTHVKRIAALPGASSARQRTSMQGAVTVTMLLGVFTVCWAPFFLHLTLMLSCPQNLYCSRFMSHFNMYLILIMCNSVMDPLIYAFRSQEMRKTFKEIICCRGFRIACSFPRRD
Endothelin receptor type B (Homo sapiens), sequence (P24530 whole entry): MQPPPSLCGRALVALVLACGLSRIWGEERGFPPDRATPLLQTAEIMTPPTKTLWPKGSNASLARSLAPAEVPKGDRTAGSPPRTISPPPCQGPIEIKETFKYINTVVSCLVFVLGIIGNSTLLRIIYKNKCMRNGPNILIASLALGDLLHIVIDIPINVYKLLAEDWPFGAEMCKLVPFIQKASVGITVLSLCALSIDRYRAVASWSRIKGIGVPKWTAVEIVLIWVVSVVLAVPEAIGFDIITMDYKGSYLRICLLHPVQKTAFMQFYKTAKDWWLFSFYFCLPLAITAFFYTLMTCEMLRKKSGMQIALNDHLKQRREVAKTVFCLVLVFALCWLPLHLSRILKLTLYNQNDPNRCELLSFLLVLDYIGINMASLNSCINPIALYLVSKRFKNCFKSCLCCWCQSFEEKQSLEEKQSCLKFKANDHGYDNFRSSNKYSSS

SMILES: O=C(O)c1cc(-c2ccc(C3CCNCC3)cc2)c2ccc(-c3ccc(C(F)(F)F)cc3)cc2c1 [PPTN]
- inhibition ([1]; Compound concentration 0.01 uM): 6%
- inhibition ([1]; Compound concentration 0.1 uM): -2%
- inhibition ([1]; Compound concentration 1.0 uM): 20%
- inhibition ([1]; Compound concentration 10.0 uM): 78%
- residual activity [2]: 82%
- inhibition [3]: 34%
- IC50 [4]: 11.4 µM
- inhibition (Bos taurus; Compound concentration 0.1 uM): -10%
- inhibition (Bos taurus; Compound concentration 1.0 uM): 9%
- inhibition (Bos taurus; Compound concentration 10.0 uM): 46%
- inhibition (Bos taurus; [27]): 91%
- inhibition [5]: 1%
- inhibition [6]: 11%
- inhibition [7]: 37%
- inhibition [8]: -10%
- inhibition ([9]; Compound concentration 0.01 uM): 3%
- inhibition ([9]; Compound concentration 0.1 uM): 1%
- inhibition ([9]; Compound concentration 1.0 uM): 12%
- inhibition ([9]; Compound concentration 10.0 uM): 56%
- inhibition at 60 min, 10 µM [10]: -10% (not active)
- inhibition [11]: 15%
- inhibition ([12]; Compound concentration 0.01 uM): -2%
- inhibition ([12]; Compound concentration 0.1 uM): -8%
- inhibition ([12]; Compound concentration 1.0 uM): 0%
- inhibition ([12]; Compound concentration 10.0 uM): 53%
- inhibition [13]: 41%
- inhibition (Homo sapiens; Compound concentration 0.01 uM): -3%
- inhibition (Homo sapiens; Compound concentration 0.1 uM): -3%
- inhibition (Homo sapiens; Compound concentration 1.0 uM): -8%
- inhibition (Homo sapiens; Compound concentration 10.0 uM): 67%
- IC50 [14]: 8.03 µM
- Ki [14]: 3.21 µM
- inhibition [15]: 31%
- inhibition [16]: 20%
- IC50 [17]: 9.02 µM
- inhibition [18]: -9%
- IC50 (Phosphodiesterase PDE1): 17.6 µM
- inhibition ([19]; Compound concentration 0.1 uM): -8%
- inhibition ([19]; Compound concentration 1.0 uM): -5%
- inhibition ([19]; Compound concentration 10.0 uM): 51%
- inhibition [19, 27]: 70%
- inhibition [20]: 4%
- inhibition [21]: -1%
- inhibition [22]: 29%
- inhibition [23]: 20%
- inhibition [24]: -1%
- inhibition (Rattus norvegicus): 3%
- IC50 [25]: 8.66 µM
- Ki [25]: 6.97 µM
- inhibition ([25]; Compound concentration 0.01 uM): 11%
- inhibition ([25]; Compound concentration 0.1 uM): 10%
- inhibition ([25]; Compound concentration 1.0 uM): -9%
- inhibition ([25]; Compound concentration 10.0 uM): 69%
- inhibition [26]: 2%
